{
  "source": "ChEMBL document CHEMBL1201862",
  "about": "“PubChem BioAssay data set” (2004)",
  "key": {"[1]": {"biological_target": "Voltage-gated inwardly rectifying potassium channel KCNH2 (Homo sapiens, UniProt Q12809)", "sequence (Q12809 whole entry)": "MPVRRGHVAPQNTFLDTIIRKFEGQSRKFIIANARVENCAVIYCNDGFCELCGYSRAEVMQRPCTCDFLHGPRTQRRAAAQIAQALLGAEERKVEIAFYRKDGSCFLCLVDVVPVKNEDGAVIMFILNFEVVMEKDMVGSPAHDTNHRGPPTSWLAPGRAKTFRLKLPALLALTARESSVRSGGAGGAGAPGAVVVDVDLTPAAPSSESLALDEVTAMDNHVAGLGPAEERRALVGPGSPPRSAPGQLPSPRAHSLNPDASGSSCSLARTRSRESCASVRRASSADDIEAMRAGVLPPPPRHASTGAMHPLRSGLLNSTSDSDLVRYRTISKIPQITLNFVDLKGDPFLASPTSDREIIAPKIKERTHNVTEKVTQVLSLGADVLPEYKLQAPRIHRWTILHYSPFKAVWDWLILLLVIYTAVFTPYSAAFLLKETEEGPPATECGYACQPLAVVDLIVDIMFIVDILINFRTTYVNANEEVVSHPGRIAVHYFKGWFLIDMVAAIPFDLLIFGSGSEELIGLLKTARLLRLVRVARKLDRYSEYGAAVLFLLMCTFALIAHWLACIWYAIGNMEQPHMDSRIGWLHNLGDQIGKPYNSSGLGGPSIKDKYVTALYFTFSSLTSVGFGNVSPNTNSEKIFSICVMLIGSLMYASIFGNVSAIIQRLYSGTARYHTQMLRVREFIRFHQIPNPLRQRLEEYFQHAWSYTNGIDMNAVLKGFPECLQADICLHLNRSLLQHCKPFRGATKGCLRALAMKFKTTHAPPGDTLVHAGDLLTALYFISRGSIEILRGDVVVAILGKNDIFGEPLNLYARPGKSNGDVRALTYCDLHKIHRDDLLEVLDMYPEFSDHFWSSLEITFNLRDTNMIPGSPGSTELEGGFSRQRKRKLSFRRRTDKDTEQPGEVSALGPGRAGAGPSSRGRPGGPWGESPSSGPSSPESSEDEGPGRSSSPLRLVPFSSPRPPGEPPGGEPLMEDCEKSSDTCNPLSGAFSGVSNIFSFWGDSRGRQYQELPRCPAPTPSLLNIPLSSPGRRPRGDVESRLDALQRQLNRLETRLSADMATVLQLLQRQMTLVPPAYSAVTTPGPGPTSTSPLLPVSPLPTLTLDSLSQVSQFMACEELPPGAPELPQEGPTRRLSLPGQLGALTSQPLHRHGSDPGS", "details": "Potency"}, "Kallikrein-7": {"biological_target": "Kallikrein-7 (Homo sapiens, UniProt P49862)", "sequence (P49862 whole entry)": "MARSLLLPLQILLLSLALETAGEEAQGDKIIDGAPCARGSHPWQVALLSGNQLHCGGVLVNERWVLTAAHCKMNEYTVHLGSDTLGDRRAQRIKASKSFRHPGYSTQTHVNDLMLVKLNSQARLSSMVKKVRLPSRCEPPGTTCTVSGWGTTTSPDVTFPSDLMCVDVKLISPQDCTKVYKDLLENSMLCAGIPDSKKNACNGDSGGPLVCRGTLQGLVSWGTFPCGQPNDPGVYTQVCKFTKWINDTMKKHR", "assay": "Fluorescence Intensity-based biochemical primary high throughput dose response assay to identify activators of kallikrein-7 (K7) zymogen."}, "[2]": {"biological_target": "T1, RNA-binding protein pos-1 (Caenorhabditis elegans, UniProt G5EF15)", "T1 sequence (G5EF15 whole entry)": "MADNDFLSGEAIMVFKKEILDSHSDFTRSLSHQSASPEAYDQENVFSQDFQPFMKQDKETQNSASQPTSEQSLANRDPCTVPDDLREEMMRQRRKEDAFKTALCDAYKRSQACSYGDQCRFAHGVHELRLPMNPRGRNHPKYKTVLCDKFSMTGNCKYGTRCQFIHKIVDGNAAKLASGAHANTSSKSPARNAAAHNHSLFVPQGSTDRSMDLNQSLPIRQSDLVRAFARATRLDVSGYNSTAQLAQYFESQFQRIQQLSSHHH", "assay": "inhibitors of POS-1/mex-3 RNA binding, dose response, biochemical, fluorescence polarization (AID 1964);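 also: purified POS-1 fused to maltose binding protein made in E. coli; potency of compounds blocking POS-1 binding to fluorescent RNA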"}, "[3]": {"biological_target": "T2, Zinc finger protein mex-5 (Caenorhabditis elegans, UniProt Q9XUB2)", "T2 sequence (Q9XUB2 whole entry)": "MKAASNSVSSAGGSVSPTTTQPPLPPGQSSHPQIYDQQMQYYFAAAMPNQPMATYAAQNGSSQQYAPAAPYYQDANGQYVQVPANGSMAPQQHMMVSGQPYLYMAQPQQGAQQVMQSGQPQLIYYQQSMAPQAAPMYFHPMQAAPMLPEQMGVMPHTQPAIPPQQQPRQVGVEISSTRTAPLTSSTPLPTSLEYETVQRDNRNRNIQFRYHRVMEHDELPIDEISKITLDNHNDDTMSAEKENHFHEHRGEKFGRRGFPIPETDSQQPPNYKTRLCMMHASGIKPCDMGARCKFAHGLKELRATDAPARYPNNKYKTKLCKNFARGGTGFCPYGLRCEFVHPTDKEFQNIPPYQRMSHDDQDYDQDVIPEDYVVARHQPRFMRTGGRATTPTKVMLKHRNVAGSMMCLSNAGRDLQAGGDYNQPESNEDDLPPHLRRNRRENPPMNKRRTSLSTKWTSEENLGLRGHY", "assay": "MEX-5/TCR-2 RNA interaction inhibitors, dose response, biochemical, C. elegans, fluorescence polarization (AID 1960)"}, "HEK293 [4]": {"system": "HEK293", "assay": "cells", "details": "Homo sapiens"}, "HEK293 [5]": {"system": "HEK293", "assay": "cells", "details": "Homo sapiens", "remark": "listed apart in the source"}, "CHO": {"system": "CHO", "assay": "cytotoxicity in TLR9-MyD88 CHO cells, dose response, cytotoxicity control for TLR9-MyD88 binding inhibitor project, cell-based, luminescence (AID 588339);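 also: CHO cells stably coexpressing TLR9 and MyD88 fusions from primary screen; compound exposure lasted 48 hours before viability readout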", "type": "functional, hamster", "details": "Cricetulus griseus"}, "[6]": {"assay": "cytotoxicity in HEK-293T cells, dose response, cytotoxicity control for TCR NF-kB inhibitor project, luminescence, T-cell screen hits (AID 489026);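 also: cells exposed to compound about 14 hours before the viability readout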", "type": "functional, cell-based"}, "[7]": {"assay": "HepG2 cell cytotoxicity, dose response, cytotoxicity control for non-replicating M. tuberculosis project (AID 489018)", "type": "functional", "details": "Mycobacterium tuberculosis"}, "[8]": {"biological_target": "T3, Heat shock factor protein 1 (Mus musculus, UniProt P38532)", "T3 sequence (P38532 whole entry)": "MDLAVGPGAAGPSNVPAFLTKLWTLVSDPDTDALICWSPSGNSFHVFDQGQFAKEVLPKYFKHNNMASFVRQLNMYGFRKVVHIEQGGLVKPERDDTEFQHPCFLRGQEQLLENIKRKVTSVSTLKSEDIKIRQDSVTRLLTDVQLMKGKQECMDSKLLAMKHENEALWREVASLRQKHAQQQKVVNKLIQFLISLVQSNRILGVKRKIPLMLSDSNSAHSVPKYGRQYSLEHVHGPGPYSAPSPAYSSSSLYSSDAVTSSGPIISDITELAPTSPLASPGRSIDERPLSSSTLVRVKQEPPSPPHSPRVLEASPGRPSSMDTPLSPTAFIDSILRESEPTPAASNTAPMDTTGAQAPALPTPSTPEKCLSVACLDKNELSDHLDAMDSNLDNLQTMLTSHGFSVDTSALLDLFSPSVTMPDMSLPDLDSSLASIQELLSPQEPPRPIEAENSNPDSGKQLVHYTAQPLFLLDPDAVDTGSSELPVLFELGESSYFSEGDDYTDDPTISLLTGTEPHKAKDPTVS", "assay": "HSF1 potentiators in luciferase reporter cells, confirmation, cell-based, NIH3T3, luminescence, dose retest (AID 435004);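 also: stress induced by proteasome inhibitor MG132 added 30 min after compound; actives raise luminescence as potentiators of the MG132 stress response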", "type": "functional"}, "[9]": {"assay": "THP-1 cell cytotoxicity, dose response, cytotoxicity control for non-replicating M. tuberculosis project (AID 489025)", "type": "functional"}, "[10]": {"assay": "Vero E6 cell cytotoxicity, dose response, cytotoxicity control for non-replicating M. tuberculosis project, secondary assay (AID 492998)", "type": "functional, VeroE6", "details": "Vero C1008"}, "cells": {"assay": "cells", "type": "functional"}},
  "note": "Activity calls are given as the source filed them.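 For AC50 in this document: confirmatory quantitative high-throughput screen measuring inhibition of hERG channel activity.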",
  "data": [
    {"smiles": "COc1ccc(NC(=O)/C=C/c2ccc(Cl)cc2)cc1", "values": [
      {"measurement": "AC50", "setting": "[1]", "result": "25.1 µM (inconclusive)"}
    ]},
    {"smiles": "Oc1nc(-c2ccccc2Cl)c2cc(F)ccc2n1", "values": [
      {"measurement": "EC50", "setting": "Kallikrein-7", "result": "> 69.5 µM (inactive)"}
    ]},
    {"smiles": "Nc1ccc2nc(-c3ccccc3)c(-c3ccccc3)nc2c1", "values": [
      {"measurement": "EC50", "setting": "[2]", "result": "23.9 µM (inconclusive)"},
      {"measurement": "EC50", "setting": "[3]", "result": "24.9 µM (active)"},
      {"measurement": "EC50", "setting": "HEK293 [4]", "result": "> 59.6 µM (inactive)"},
      {"measurement": "EC50", "setting": "HEK293 [5]", "result": "> 59.6 µM (inactive)"},
      {"measurement": "IC50", "setting": "CHO", "result": "> 49.7 µM (inactive)"}
    ]},
    {"smiles": "Cc1ccc(O)c(NC(=O)c2cc(-c3ccccc3)on2)c1", "values": [
      {"measurement": "IC50", "setting": "[6]", "result": "> 80 µM (inactive)"}
    ]},
    {"smiles": "COc1ccc(C(CCNCc2ccccc2)c2ccc(F)cc2)cc1", "note": "(stereo unspecified)", "values": [
      {"measurement": "CC50", "setting": "[7]", "result": "14.6 µM (active)"},
      {"measurement": "EC50", "setting": "[8]", "result": "> 260 µM (inactive)"},
      {"measurement": "CC50", "setting": "[9]", "result": "11.7 µM (active)"},
      {"measurement": "CC50", "setting": "[10]", "result": "18 µM (active)"},
      {"measurement": "IC50", "setting": "cells", "result": "18.7 µM (active)"}
    ]},
    {"smiles": "Cc1c(C2(O)CCCCC2)[nH]c2cnccc12", "values": [
      {"measurement": "EC50", "setting": "Kallikrein-7", "result": "> 69.5 µM (inactive)"}
    ]},
    {"smiles": "Nc1c(Cl)cc(Cl)cc1C(=O)OCC(=O)N1CCCC1", "values": [
      {"measurement": "EC50", "setting": "Kallikrein-7", "result": "> 69.5 µM (inactive)"}
    ]},
    {"smiles": "CCOC(=O)N1CCC2(CC1)NC(=O)c1ccccc1N2", "values": [
      {"measurement": "EC50", "setting": "Kallikrein-7", "result": "> 69.5 µM (inactive)"}
    ]}
  ]
}
